# pIC50: −log10 of the molar value.
# Assays:
# Format in all cases: cell-based, human
# [1] = system: threonine 172 phosphorylation of the AMP-activated kinase (p-AMPK); experiment: AMPK threonine 172 phosphorylation, western blot; conditions: 24 h
# Protocol: (B) Effects of TAK1 inhibition on apoptosis and signaling in a representative panel of KRAS-independent and KRAS-dependent cell lines, 24 h after treatment. PARP and caspase-3 cleavage are shown as indicators of apoptosis, and AMPK threonine 172 (T172) phosphorylation is shown as a downstream indicator of TAK1 signaling activity. GAPDH serves as a gel loading control.
# Pharmacologic TAK1 inhibition triggered apoptosis in KRAS-dependent colon cancer cells, as measured by PARP and caspase-3 cleavage (FIG. 3B). […] Thus, low concentrations of 5Z-7-oxozeaenol, in the range of 0.625 to 1.25 μM, promote apoptosis selectively in KRAS-dependent colon cancer cells.
# The following antibodies were used for western blotting in the above examples: KRAS OP-24, Pan-Ras OP-40 (Calbiochem); PARP (BD Pharmigen, 4C10-5); BMP-7 (Abcam); phospho-ERK, Axin2, phospho Smad1 and total Smad1/5/8, phospho- and total AMPK, phospho- and total AKT, cleaved Caspase-3 (Cell Signaling); GAPDH (Chemicon); E-Cadherin, beta-catenin (BD Pharmigen) Syk, TAK1, total ERK1 (Santa Cruz). For secreted BMP-7 levels, 1×10^6 HT29 cells stably expressing ER-KRAS(12V) were plated in 10 cm dishes. 24 h post-plating, 10 ml serum-free DME/F12 medium (Gibco) was added. Conditioned media was collected 24 h post-induction of ER-KRAS(12V) with 4-HT and concentrated to […], using AMICON® Ultra-4 Centrifugal Filter Units with 3 kDa membranes. […]
# [2] = system: HT29 cells expressing BMPR1A-CA (Q233D); experiment: Sensitivity of HT29 cells expressing BMPR1A-CA
# Protocol: (E) Introduction of a V5-tagged constitutively activated (CA) mutant of the BMP receptor, BMPR1A (Q233D) or control vector in HT29 cells and effects on 5Z-7-oxozeaenol sensitivity in terms of IC50 values.
# To determine whether TAK1-independent cells could be driven toward TAK1 dependency by enhanced KRAS/Wnt signaling, a series of reconstitution experiments was performed. HT29, SW620 or SKCO1 cells were infected with recombinant lentiviruses encoding either BMPR1A-CA and CTNNB1-CA or vector control (containing the ccDB gene). For BMPR1A-CA stable expression, cells were selected in 5 μg/mlBlasticidin for 7 days and pooled clones were established. Stable expression was verified using the V5 epitope tag on the BMPR1A transgene product. For CTNNB1-CA, the pWPI recombinant lentiviruses encode GFP driven by IRES. Thus, stable cell clones were obtaining by FACS live cell sorting to obtain the top 10% of GFP expressing cells. The SW620-CTNNB1-CA stable cell clones were passaged 1:5 every 2 days and assayed for KRAS dependency after the fifth passage.
# To further define the role of BMP signaling in TAK1 dependency, a constitutively-activated (CA) variant (Q233D) of BMPR1A (Zou et al., 1997) was ectopically expressed in HT29 cells. […] This was accompanied by dose-dependent decreases in Axin 2 and phosphorylated Smad2 levels. […]
# [3] = system: Hs 257.T cells; experiment: Cellular proliferation and viability, CRC cell line panel; conditions: KRAS G13D, BRAF WT, 3 days post-treatment
# Protocol: (§1) (A) IC50 values (μM) for effects on cellular proliferation and viability with the TAK1 kinase inhibitor 5z-7-oxozeaenol in a panel of colon cancer cell lines that have been genotyped as KRAS mutant (KRAS-independent—circles or KRAS-dependent—squares), BRAF mutant (triangles) or wild-type for both KRAS and BRAF (OTHER—diamonds). Effects on growth were measured 3 days post-treatment. Data are represented as the mean of 3 independent experiments and error bars indicate the median±interquartile range. *denotes p<0.00001; n.s.—not significant.
# (§2) To further validate TAK1 as a candidate therapeutic target in this context, a potent and selective TAK1 kinase inhibitor, 5Z-7-oxozeaenol (Rawlins et al., 1999), was used. Sensitivity to 5Z-7-oxozeaenol was tested in a panel of 47 colon cancer cell lines with various genotypes (FIGS. 3A and 9A). KRAS and BRAF genotypes were either procured from the Sanger Institute's Catalog of Somatic Mutations (COSMIC) or determined by targeted resequencing (Table 2). KRAS mutation status was determined as described above; the same methods were used to determine the mutation states of BRAF. BRAF exon15 was sequenced with TCATAATGCTTGCTCTGATAGGA (forward; SEQ ID NO:3) and GGCCAAAAATTTAATCAGTGG (reverse; SEQ ID NO:4).
# [4] = system: T84 cells; experiment: as above; conditions: KRAS G13D, BRAF WT, APC del, CTNNB1 WT, 3 days post-treatment
# Protocol: as §1, §2
# [5] = system: Caco-2 cells; experiment: as above; conditions: KRAS WT, BRAF V600E, CTNNB1 WT, 3 days post-treatment
# Protocol: as §1, §2
# [6] = system: COLO-678 cells; experiment: as above; conditions: KRAS G12D (KRAS-dependent), BRAF WT, APC del, CTNNB1 WT, 3 days post-treatment
# Protocol: as §1, §2
# [7] = system: CL-40 cells; experiment: as above; conditions: KRAS G12D (KRAS-dependent), BRAF WT, 3 days post-treatment
# Protocol: as §1, §2
# [8] = system: LoVo cells; experiment: as above; conditions: KRAS G13D (KRAS-dependent), BRAF WT, APC del, CTNNB1 WT, 3 days post-treatment
# Protocol: as §1, §2
# [9] = system: HCT-15 cells; experiment: as above; conditions: KRAS G13D, BRAF WT, APC del, CTNNB1 WT, 3 days post-treatment
# Protocol: as §1, §2
compound,measurement,setting,value
COc1cc(O)c2c(c1)/C=C/C[C@H](O)[C@H](O)C(=O)/C=C\C[C@H](C)OC2=O [5Z-7-oxozeaenol],threonine 172 phosphorylation of AMPK (p-AMPK),[1]; KRAS-dependent colon cancer cells,reduced
same,AMPK phosphorylation,[1]; KRAS-independent cells,unaffected
same,pIC50,[2],5.96
same,pIC50,[3],5.49
same,pIC50,[4],5.55
same,pIC50,[5],5.84
same,pIC50,[6],6.11
same,pIC50,[7],6.32
same,pIC50,[8],6.97
same,pIC50,[9],5.09

# From US20140243403A1, “TREATING COLORECTAL, PANCREATIC, AND LUNG CANCER” (The General Hospital Corporation, priority 2011, published 2014)
